Values of other authors as cited in US20030108495A1, “Cosmetic compositions containing 2,2-dihydroxymethy1-1,3-dioxolanes” (priority 2001, published 2003).

Test system: moisturized human skin
Settings: cosmetic composition applied to moisturized human skin

## O=C(CO)CO [DHA, 1,3-dihydroxyacetone]
  time after initial application until tan appearance (brown-colored melanoidins): approximately five
